Data from patent US11414385B2, “Compounds and methods for treating, detecting, and identifying compounds to treat apicomplexan parasitic diseases” (The University of Chicago, priority 2015, dated 2022).

Tests used:
hERG = hERG (Homo sapiens, UniProt Q12809); test: hERG profile
[1] = tested on: P. berghei sporozoites, blood and liver stages; test: P. berghei sporozoite causal prophylaxis model in mice; type: in vivo, Plasmodium berghei
Method: P. berghei sporozoites. The methods that follow are taken directly from^24,25: From laboratory-reared female Anopheles stephensi, isolation, inoculation and viability check Plasmodium berghei sporozoites (luciferase expressing) were obtained and maintained at 18° C. for 17 to 22 days after feeding on malaria-infected Swiss CD-1/ICR mice. From malaria-infected mosquitoes, salivary glands were extracted and sporozoites obtained. Briefly, mosquitoes were separated into head/thorax and abdomen. Thoraxes and heads were triturated with a mortar and pestle and suspended in medium RPMI 1640 containing 1% C57BL/6 mouse serum (Rockland Co, Gilbertsville, Pa., USA). 50-80 heads with glands total were placed into a 0.5 ml Osaki tube on top of glass wool with enough dissection media to cover the heads. Until all mosquitoes had been dissected, the Osaki tube was kept on ice. Sporozoites that were isolated from the same batch of mosquitoes were inoculated into C57BL/6, 2D knock-out and 2D knock-out/2D6 knock-in C57BL/6 mice on the same day to control for biological variability in sporozoite preparations. On day 0, each mouse was inoculated intravenously in the tail vein with approximately 10,000 sporozoites suspended in 0.1 ml volume. They were stained with a vital dye containing fluorescein diacetate (50 mg/ml in acetone) and ethidium bromide (20 μg/ml in phosphate buffered saline; Sigma Chemical Co, St. Louis, Mo., USA) and counted in a haemocytometer to ensure that inoculated sporozoites were viable following the isolation procedure. Viability of the sporozoites ranged from 90 to 100%.
At the time of preparation of the suspension solution, compounds tested in these experiments were dosed based on the body weight. The suspension solution of oral agents, using homogenizer (PRO Scientific Inc, Monroe, Conn., USA) with 10 mm open-slotted generator to homogenize drug powder mixture at 20,000-22,000 rpm for 5 min in ice bath, were prepared in 0.5% (w/v) hydroxyethyl cellulose and 0.2% (0.5% HECT, v/v) Tween-80 in distilled water. […]
All of the in vivo imaging system (IVIS) methods utilized have been described previously. […] Additionally, using a flow cytometry system (FC500 MPL, Beckman Coulter, Miami, Fla., USA), blood-stage infections were measured. […] D-Luciferin potassium salt, (Xenogen, California and Goldbio, St Louis, Mo., USA), the luciferase substrate, was inoculated intraperitoneally into mice at a concentration of 200 mg/kg 15 min before luminescence analysis. […] Using Living Image® 3.0 software, photons emitted from specific regions were quantified.
Parasitemia was measured after days of IVIS imaging. During a total of 30 days, mice were observed and parasitemia level determined using FACs analysis. […]

CYP = CYP profile; type: in vitro ADME
[2] = tested on: S. cerevisiae M221Q and M221F cytochrome b mutants; test: Yeast growth inhibition, cytochrome b Qi mutants; type: cell-based, Saccharomyces cerevisiae
Excerpt: (§1) Three S. cerevisiae strains were used: M221Q and M221F cytochrome b mutants and wild type. They share the same nuclear genetic background deriving from AD1-9 (kindly given by M. Ghislain, UCL, Belgium). AD1-9 harbors multiple deletions in the ABC transporter genes that render the strain more sensitive to drugs than standard yeast strains^S65.
Cytochrome b mutant M221F was generated by mitochondrial transformation as described. M221 Q was selected as suppressor from a respiratory deficient mutant. Analysis of revertants from respiratory deficient mutants within the center N of cytochrome b in Saccharomyces cerevisiae.
Protocol: Yeast strains were grown over 48 hours at 33° C. in liquid YPG medium [1% yeast extract, 2% (wt/vol) peptone, and 3% (vol/vol) glycerol). Cultures were diluted to an OD600 of 0.05 and grown for 2 hrs. Cultures were then combined with YPG containing 6% melted agar for a total volume of 15-20 mL and poured onto OmniTray single-well rectangular plates that measured 86 mm by 128 mm (ThermoScientific). Filter paper disks (7 mm diameter, […]) were placed onto the cooled agar plates. […] Images were obtained after 4 days using GelDoc XR Imaging System (BioRad) and Quantity One software. Drug effect was assessed by the presence and size of a zone of inhibition around the disks.

[3] = tested on: S. cerevisiae wild type parental AD1-9 strain; test: Yeast growth inhibition on glycerol medium, wild type; type: cell-based, Saccharomyces cerevisiae; settings: 1 mM, 100, 5 and 1 μM
Method: as §1
Protocol: Yeast strains were grown over 48 hours at 33° C. in liquid YPG medium [1% yeast extract, 2% (wt/vol) peptone, and 3% (vol/vol) glycerol). Cultures were diluted to an OD600 of 0.05 and grown for 2 hrs. Cultures were then combined with YPG containing 6% melted agar for a total volume of 15-20 mL and poured onto OmniTray single-well rectangular plates that measured 86 mm by 128 mm (ThermoScientific). Filter paper disks (7 mm diameter, […]) were placed onto the cooled agar plates. […] A single disk with DMSO on each plate was used as a control. Plates were incubated at 33° C. Images were obtained after 4 days using GelDoc XR Imaging System (BioRad) and Quantity One software. Drug effect was assessed by the presence and size of a zone of inhibition around the disks.

[4] = P. berghei, 0.625 mg/kg x3 or 2.5 mg/kg single oral dose

Sequence of hERG (Q12809 whole entry): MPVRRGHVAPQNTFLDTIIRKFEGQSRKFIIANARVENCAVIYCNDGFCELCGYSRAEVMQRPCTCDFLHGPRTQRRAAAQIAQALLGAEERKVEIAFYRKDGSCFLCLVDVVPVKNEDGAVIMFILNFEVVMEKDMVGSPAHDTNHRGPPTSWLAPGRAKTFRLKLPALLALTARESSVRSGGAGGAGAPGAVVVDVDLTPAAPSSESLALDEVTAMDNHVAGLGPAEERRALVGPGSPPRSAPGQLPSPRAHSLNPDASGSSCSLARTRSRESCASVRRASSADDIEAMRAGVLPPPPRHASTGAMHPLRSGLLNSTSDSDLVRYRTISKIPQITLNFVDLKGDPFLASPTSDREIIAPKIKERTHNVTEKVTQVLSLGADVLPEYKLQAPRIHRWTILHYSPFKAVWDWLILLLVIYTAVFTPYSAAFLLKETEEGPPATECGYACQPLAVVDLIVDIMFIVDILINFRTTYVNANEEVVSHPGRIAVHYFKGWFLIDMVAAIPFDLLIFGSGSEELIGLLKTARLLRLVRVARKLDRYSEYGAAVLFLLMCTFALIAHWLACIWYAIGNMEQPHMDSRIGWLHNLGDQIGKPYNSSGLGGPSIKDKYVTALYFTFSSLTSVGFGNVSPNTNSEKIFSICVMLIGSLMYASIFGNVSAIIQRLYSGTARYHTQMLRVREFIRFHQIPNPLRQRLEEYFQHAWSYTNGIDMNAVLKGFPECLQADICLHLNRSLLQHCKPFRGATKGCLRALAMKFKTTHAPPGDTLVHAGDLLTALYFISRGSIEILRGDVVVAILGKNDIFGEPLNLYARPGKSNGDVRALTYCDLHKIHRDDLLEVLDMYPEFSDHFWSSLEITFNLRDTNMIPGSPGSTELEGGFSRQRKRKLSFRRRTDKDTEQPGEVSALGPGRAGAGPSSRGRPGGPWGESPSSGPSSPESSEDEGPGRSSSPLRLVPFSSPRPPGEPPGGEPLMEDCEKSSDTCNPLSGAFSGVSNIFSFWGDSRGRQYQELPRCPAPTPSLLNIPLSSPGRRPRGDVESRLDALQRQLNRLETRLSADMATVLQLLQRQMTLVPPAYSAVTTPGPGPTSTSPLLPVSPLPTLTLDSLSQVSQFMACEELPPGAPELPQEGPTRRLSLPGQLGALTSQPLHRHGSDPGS

Row | SMILES | hERG profile (hERG) | P. berghei cure, 3 oral doses ([1]; 3 oral doses (days -1, 0, +1), 0.625 mg/kg) | parasitemia [1, 4] | survival at 30 days [1, 4] | P. berghei cure, single oral dose ([1]; single dose 2.5 mg/kg, oral, 2.5 mg/kg) | CYP profile (CYP) | growth inhibition of M221Q / M221F yeast [2] | growth inhibition of wild type yeast [3]
1 | Cc1[nH]c2c(c(=O)c1-c1ccc(Oc3ccc(OC(F)(F)F)cc3)cc1)CCCC2 [JAG21, 2-methyl-3-(4-(4-(trifluoromethoxy)phenoxy)phenyl)-5,6,7,8-tetrahydroquinolin-4(1H)-one] | clean | protect and cure | no parasitemia | 100% | cures and cure | clean | – | –
2 | Cc1[nH]c2c(c(=O)c1-c1ccc(Oc3ccccc3)cc1)CCCC2 [MJM170] | – | – | – | – | – | – | resistant | effective
